The text below walks through data of US9868737B2, “Pyridino[1,2-A]pyrimidone analogue used as MTOR/P13K inhibitor” (CISEN PHARMACEUTICAL CO., LTD., priority 2014, dated 2018).

The structures appear in SMILES notation. Where only a bound is given, the exact number is not on record here.

One assay deals with MCF-7 cells. Nature of the assay: In vitro test of cell activity (MCF-7 cells, insulin stimulation, ELISA-One fluorescence). The assay is classed as cell-based. Conditions: Homo sapiens, MCF7, MCF-7 cells; read-out: IC50 p-AKT. A digest of the protocol:
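MCF-7 cells, seeded at 2.5×10^4/well in 10% FBS medium, were given compound in serum-free medium for 2 h at one concentration (screen) or a series (IC50). Insulin stimulation followed at […] final for 30 min; lysates assayed by ELISA-One sandwich immunoassay with fluorescence read-out.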

The next assay deals with T1, PI3K (p110α) kinase (Homo sapiens, UniProt P42336).
T1 construct: made in house
Nature of the assay: PI3K (p110α) kinase assay (PI3K HTRF Assay). It is filed as biochemical. Conditions: in vitro enzyme activity assay, 10 μM PIP2, read-out: PI3K (p110α) enzyme activity_IC50. The source says:
Conclusion: The compounds of the present invention have significant inhibitory effect on mTOR/PI3K. Example In Vitro Enzyme Activity Assay 1. The experimental procedures and methods of PI3K (p110α) kinase assay: 1) Experimental Objective
The objective was to evaluate the inhibitory effect of the subject samples on PI3K (p110α) kinase activity at molecular level.
PerkinElmer Envision 2104 Multilabel Reader.
PI 3-Kinase HTRF Assay (384 wells) was purchased from Upstate (Millipore) company: PI3K (p110α) kinase was made in our lab.
c) Experimental procedures
Each solution was prepared according to the instructions provided in the Kinase PI 3-Kinase HTRF Assay. The kinase reaction was carried out in white 384-well plates (Proxiplate-384 plus), 0.5 μl of DMSO (the concentration was consistent with the highest concentration of DMSO for the test compounds) was added to each of the two control wells with and without enzyme, and then 0.5 μl of a series of different concentrations of the test compounds was added to each well to be tested. The kinase reaction liquid (10 μM substrate PIP2, 0.5 ng PI3K (p110α)) was added to the control well containing enzyme and the test wells, while only working reaction liquid (10 μM substrate PIP2) was added to the control well without enzyme, and finally, 5 μM ATP working reaction liquid was added to activate the reaction. After the reaction was carried out at room temperature for 30 min, the stop solution was added to each well to terminate the kinase reaction. After the mixture was fully mixed, the detection liquid was added to each well and fully mixed. The plate was sealed with Parafilm and placed in the dark. After incubated overnight, the mixture was detected.
The IC50 value was calculated through the GraphPad software after plotting the relative inhibitory rate versus concentration.

T1 sequence (P42336 whole entry): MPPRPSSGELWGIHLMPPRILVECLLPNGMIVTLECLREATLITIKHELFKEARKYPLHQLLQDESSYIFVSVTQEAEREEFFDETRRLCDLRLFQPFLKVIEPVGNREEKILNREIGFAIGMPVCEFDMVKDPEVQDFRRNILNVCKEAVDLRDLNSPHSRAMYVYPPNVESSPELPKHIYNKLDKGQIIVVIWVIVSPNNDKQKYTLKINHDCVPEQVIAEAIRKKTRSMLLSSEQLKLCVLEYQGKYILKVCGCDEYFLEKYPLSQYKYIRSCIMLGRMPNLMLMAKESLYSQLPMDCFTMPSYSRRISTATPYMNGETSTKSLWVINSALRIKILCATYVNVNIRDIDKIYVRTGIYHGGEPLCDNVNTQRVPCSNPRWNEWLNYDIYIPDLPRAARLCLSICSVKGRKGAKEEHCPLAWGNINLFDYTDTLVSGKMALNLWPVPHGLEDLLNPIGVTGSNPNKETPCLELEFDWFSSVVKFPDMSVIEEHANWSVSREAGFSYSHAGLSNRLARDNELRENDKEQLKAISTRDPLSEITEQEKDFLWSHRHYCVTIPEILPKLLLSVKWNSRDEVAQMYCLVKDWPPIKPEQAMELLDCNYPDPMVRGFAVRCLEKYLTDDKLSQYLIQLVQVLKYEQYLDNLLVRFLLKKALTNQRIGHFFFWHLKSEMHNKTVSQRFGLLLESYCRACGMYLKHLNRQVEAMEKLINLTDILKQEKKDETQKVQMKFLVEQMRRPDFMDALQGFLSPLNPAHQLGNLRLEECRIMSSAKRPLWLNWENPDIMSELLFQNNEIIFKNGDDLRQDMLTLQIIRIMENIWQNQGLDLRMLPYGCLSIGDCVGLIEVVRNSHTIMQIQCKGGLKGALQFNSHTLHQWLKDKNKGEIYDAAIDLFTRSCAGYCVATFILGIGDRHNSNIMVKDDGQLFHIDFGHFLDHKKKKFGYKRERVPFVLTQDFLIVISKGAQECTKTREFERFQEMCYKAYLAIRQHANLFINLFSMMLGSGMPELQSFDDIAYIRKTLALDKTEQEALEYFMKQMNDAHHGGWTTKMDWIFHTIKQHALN

In the case of `COCCOc1cnc2ccc(-c3cnc(OC)c(NS(=O)(=O)c4ccc(C)cc4C)c3)cn2c1=O` [compound 244], the IC50 is 50 to 100 nM in the assay with MCF-7 cells and at most 1 nM at PI3K (p110α) kinase.

Take `COCCOc1cnc2ccc(-c3cnc(OC)c(NS(=O)(=O)c4c(Cl)cccc4Cl)c3)cn2c1=O` [compound 245]: the IC50 was at most 50 nM in the assay on MCF-7 cells and at most 1 nM at PI3K (p110α) kinase.

As for `COCCOc1cnc2ccc(-c3cnc(OC)c(NS(=O)(=O)c4ccc(F)c(F)c4)c3)cn2c1=O` [compound 246], the IC50 with MCF-7 cells is 100 to 250 nM; on PI3K (p110α) kinase it was at most 1 nM.

With `COCCOc1cnc2ccc(-c3cnc(OC)c(NS(=O)(=O)c4cccc(C)c4)c3)cn2c1=O` [compound 247], the IC50 was 100 to 250 nM in the assay on MCF-7 cells and at most 1 nM at PI3K (p110α) kinase.

As to `COc1ncc(-c2ccc3ncc(OCC4COC4)c(=O)n3c2)cc1NS(=O)(=O)c1c(Cl)cccc1Cl` [compound 249], the IC50 with MCF-7 cells is at most 50 nM; on PI3K (p110α) kinase it was at most 1 nM.

`COc1ncc(-c2ccc3ncc(OCC4COC4)c(=O)n3c2)cc1NS(=O)(=O)c1ccc(F)c(F)c1` [compound 250]: the IC50 with MCF-7 cells was 50 to 100 nM; on PI3K (p110α) kinase it was at most 1 nM.

Regarding `COc1ncc(-c2ccc3ncc(OCC4COC4)c(=O)n3c2)cc1NS(=O)(=O)c1ccc(C)cc1C` [compound 251], the IC50 is 100 to 250 nM in the assay with MCF-7 cells and at most 1 nM on PI3K (p110α) kinase.

Take `COCCOc1cnc2ccc(-c3cnc(OC)c(NS(=O)(=O)c4ccc(F)cc4C)c3)cn2c1=O` [compound 252]: the IC50 with MCF-7 cells is over 250 nM; at PI3K (p110α) kinase, 1 to 10 nM.

In the case of `COCCOc1cnc2ccc(-c3cnc(OC)c(NS(=O)(=O)c4ccccc4Cl)c3)cn2c1=O` [compound 253], the IC50 with MCF-7 cells is at most 50 nM; at PI3K (p110α) kinase, at most 1 nM.

In the case of `COc1ncc(-c2ccc3ncc(OCC4COC4)c(=O)n3c2)cc1NS(=O)(=O)c1ccc(F)cc1C` [compound 255], the figures for the IC50 in the assay on MCF-7 cells and on PI3K (p110α) kinase were 100 to 250 nM and at most 1 nM, respectively.

As for `COc1ncc(-c2ccc3ncc(OCC4COC4)c(=O)n3c2)cc1NS(=O)(=O)c1ccccc1Cl` [compound 257], the IC50 in the assay on MCF-7 cells was at most 50 nM; at PI3K (p110α) kinase, at most 1 nM.

`COCCOc1cnc2ccc(-c3cnc(OC)c(NS(=O)(=O)c4cc(F)ccc4C)c3)cn2c1=O` [compound 260]: the values for the IC50 in the assay on MCF-7 cells and on PI3K (p110α) kinase were 100 to 250 nM and at most 1 nM, respectively.

Take `COCCOc1cnc2ccc(-c3cnc(OC)c(NS(=O)(=O)c4cccc(Cl)c4C)c3)cn2c1=O` [compound 261]: the IC50 in the assay on MCF-7 cells was 50 to 100 nM; at PI3K (p110α) kinase, at most 1 nM.

Regarding `COCCOc1cnc2ccc(-c3cnc(OC)c(NS(=O)(=O)c4cc(C)ccc4C)c3)cn2c1=O` [compound 262], the IC50 is 50 to 100 nM in the assay with MCF-7 cells and at most 1 nM on PI3K (p110α) kinase.

Consider `COCCOc1cnc2ccc(-c3cnc(OC)c(NS(=O)(=O)c4ccc(Cl)cc4Cl)c3)cn2c1=O` [compound 263], for which the IC50 in the assay with MCF-7 cells is 50 to 100 nM; at PI3K (p110α) kinase, at most 1 nM.

Consider `COCCOc1cnc2ccc(-c3cnc(OC)c(NS(=O)(=O)c4c(F)cccc4F)c3)cn2c1=O` [compound 265], for which the IC50 is 100 to 250 nM in the assay on MCF-7 cells and at most 1 nM on PI3K (p110α) kinase.

As to `COCCOc1cnc2ccc(-c3cnc(OC)c(NS(=O)(=O)c4c(C)cc(C)cc4C)c3)cn2c1=O` [compound 268], the IC50 is 100 to 250 nM with MCF-7 cells and 1 to 10 nM at PI3K (p110α) kinase.

As for `COCCOc1cnc2ccc(-c3cnc(OC)c(NS(=O)(=O)c4ccc(Cl)cc4F)c3)cn2c1=O` [compound 271], the IC50 in the assay with MCF-7 cells is 50 to 100 nM; on PI3K (p110α) kinase, at most 1 nM.

Consider `COCCOc1cnc2ccc(-c3cnc(OC)c(NS(=O)(=O)c4ccc(C)cc4Cl)c3)cn2c1=O` [compound 275], for which the IC50 is at most 50 nM with MCF-7 cells and at most 1 nM at PI3K (p110α) kinase.

In the case of `COc1ncc(-c2ccc3ncc(OCC4COC4)c(=O)n3c2)cc1NS(=O)(=O)c1ccc(C)cc1Cl` [compound 277], the values for the IC50 in the assay with MCF-7 cells and at PI3K (p110α) kinase were at most 50 nM and at most 1 nM, respectively.
